According to US6852689B2, “Methods for administration of antibiotics” (priority 1998, dated 2005):
Several values for one entry are separate records, joined by “and”; a condition that tells them apart may be missing. Identical values can stand only once. Like-named read-outs stand apart in the source and are kept apart here.

Columns and labels:
[1] = cited from earlier work
gram-positive bacteria = conditions: cited from earlier work
[2] = system: human volunteers and patients; conditions: in vivo, cited from earlier work
[3] = human, in vivo
dogs [4] = test: Study B: skeletal muscle toxicity (serum CPK, microscopic myopathy) after repeated intravenous dosing; format: in vivo, dog
Protocol: Serum CPK levels were determined as disclosed in Example 1. […] In contrast, CPK levels at 5 mg/kg q8h were elevated compared to 5 mg/kg q24h or saline controls.

dogs [5] = test: Study A: skeletal muscle toxicity (serum CPK, microscopic myopathy) after repeated intravenous dosing; conditions: for Diaphragm myofiber degeneration, sites affected/sites examined / Heart myofiber degeneration, sites affected/sites examined / Skeletal muscle myofiber degeneration, sites affected/sites examined / Skeletal muscle myofiber regeneration, sites affected/sites examined: iv 20 days
Protocol: (§1) Skeletal muscle toxicity was measured in dogs by increases in CPK levels to above the normal range and by microscopic changes in skeletal tissue.
Treated animals were sacrificed at approximately one dosing interval after the last dose and muscle tissue was microscopically examined for indications of myopathy.

dogs [6] = conditions: dog, in vivo, iv, 40 mg/kg/day; cited from earlier work
[7] = Study B: steady state plasma concentrations of daptomycin on day 18 by HPLC
Protocol: In order to study the effects of threshold plasma concentration on skeletal muscle toxicity, dogs (4 male dogs/group) were administered dose regimens of saline q8h, daptomycin 5 mg/kg q24h (approximate NOELq24h) and daptomycin 5 mg/kg q8h intravenously for 20 days.
As in Example 1, steady state plasma concentrations of daptomycin on day 18 of dosing were determined by HPLC.

[8] = Study A: steady state plasma concentrations of daptomycin on day 18 by HPLC; conditions: dogs
Protocol: as §1
Steady state plasma concentrations of daptomycin on day 18 of dosing were determined by HPLC.

rats = conditions: rat, in vivo, iv, 75 mg/kg/day; cited from earlier work
human patients = test: Clinical study (Example 4): serum CPK and skeletal muscle effects in hospitalized adult subjects with gram-positive infections; format: in vivo
Protocol: In order to study whether an increased dosing interval would prevent transient skeletal muscle toxicity in patients, daptomycin was administered intravenously to hospitalized adult subjects with serious gram-positive bacteremia or with a variety of infections due to gram-positive bacteria that was resistant to vancomycin or who were otherwise refractory to, or contraindicated for, currently available therapy. The subjects were treated for a period of 7-21 days. Serum CPK levels were determined prior to first antibiotic treatment and every other day for the first seven days of treatment, and daily thereafter.

CCCCCCCCCC(=O)N[C@@H](Cc1c[nH]c2ccccc12)C(=O)N[C@H](CC(N)=O)C(=O)N[C@@H](CC(=O)O)C(=O)N[C@@H]1C(=O)NCC(=O)N[C@@H](CCCN)C(=O)N[C@@H](CC(=O)O)C(=O)N[C@H](C)C(=O)N[C@@H](CC(=O)O)C(=O)NCC(=O)N[C@H](CO)C(=O)N[C@@H]([C@H](C)CC(=O)O)C(=O)N[C@@H](CC(=O)c2ccccc2N)C(=O)O[C@@H]1C [daptomycin]
Plasma protein binding [1]: high
MIC of certain vancomycin-resistant strains relative to most vancomycin-susceptible strains (gram-positive bacteria): two- to four-fold
MIC relative to that of vancomycin (gram-positive bacteria; susceptible strains, typical): 4 fold lower
Adverse effects ([2]; 3 mg/kg): occasional adverse effects
Patients with transient muscular weakness and pain ([2]; 4 mg/kg): two of five
Predicted Cmax ([3]; 4 mg/kg): 69.2 µg/mL
Predicted Cmax ([3]; 6 mg/kg): 86.8 µg/mL
Effect on heart muscle (dogs [4]; dog, in vivo): No degenerative effect
Increases in CPK levels correlating with very minimal myofiber degeneration (dogs [4]; dog, in vivo): zero- to four-fold
Heart myofiber degeneration, sites affected/sites examined (dogs [4]; dog, in vivo, iv, 5 mg/kg): 0/4
NOEL (dogs [4]; dogs, q24h dosing interval): approximately 5 mg/kg
Increases in serum CPK correlating with minimal skeletal myofiber degeneration (dogs [5]; dog, in vivo): three- to 25
Microscopic effect on heart muscle (dogs [5]; dog, in vivo): No microscopic degenerative effect
Time of CPK peak during treatment (dogs [5]; dog, in vivo): approximately 1 week
Increase in CPK levels (dogs [5]; dog, in vivo, 25 mg/kg): greater than 10 fold
Incidence of Microscopic Myopathy (sites with minimal degenerative changes/sites examined) (dogs [5]; dog, in vivo, iv, 75 mg/kg): 8/28
Peak CPK (dogs [5]; dog, in vivo, iv, 75 mg/kg): 990 U/L
Increase in toxicity as measured by incidence of microscopic myopathy (dogs [5]; dogs, 25 mg/kg three times a day compared to once daily): 5 fold
Diaphragm myofiber degeneration, sites affected/sites examined (dogs [5]; dogs, 25 mg/kg q8h): 1/4
Heart myofiber degeneration, sites affected/sites examined (dogs [5]; dogs, 25 mg/kg q8h): 0/4
Skeletal muscle myofiber degeneration, sites affected/sites examined (dogs [5]; dogs, 25 mg/kg q8h): 14/24
Skeletal muscle myofiber regeneration, sites affected/sites examined (dogs [5]; dogs, 25 mg/kg q8h): 9/24
Diaphragm myofiber degeneration, sites affected/sites examined (dogs [5]; dogs, 25 mg/kg q24h): 0/4
Heart myofiber degeneration, sites affected/sites examined (dogs [5]; dogs, 25 mg/kg q24h): 0/4
Skeletal muscle myofiber degeneration, sites affected/sites examined (dogs [5]; dogs, 25 mg/kg q24h): 3/24
Skeletal muscle myofiber regeneration, sites affected/sites examined (dogs [5]; dogs, 25 mg/kg q24h): 2/24
Diaphragm myofiber degeneration, sites affected/sites examined (dogs [5]; dogs, 75 mg/kg q24h): 0/4
Heart myofiber degeneration, sites affected/sites examined (dogs [5]; dogs, 75 mg/kg q24h): 0/4
Skeletal muscle myofiber degeneration, sites affected/sites examined (dogs [5]; dogs, 75 mg/kg q24h): 8/24
Skeletal muscle myofiber regeneration, sites affected/sites examined (dogs [5]; dogs, 75 mg/kg q24h): 1/24
Skeletal muscle finding (dogs [6]): mild myopathy
half-life ([7]; dog, in vivo): 2.5 h
Time below 10 μg/mL plasma concentration ([7]; dogs, 5 mg/kg q8h): 6 h
AUC ratio ([7]; dogs, 5 mg/kg q8h compared to 5 mg/kg q24h): 2.6 fold higher
Time below 10 μg/mL plasma concentration ([7]; dogs, 5 mg/kg q24h): 18 h
Cmax ratio ([8]; 25 mg/kg q8h compared to 25 mg/kg q24h): 1.23 fold higher
AUC ratio ([8]; 25 mg/kg q8h compared to 75 mg/kg q24h): 0.37 fold higher
Time with plasma concentration below 27 μg/mL before next dose ([8]; 75 mg/kg q24h): approximately 12 hours
Cmax ratio ([8]; 75 mg/kg q24h compared to 25 mg/kg q8h): approximately 2.8 fold higher
Skeletal muscle finding (rats): mild myopathy
Muscular pain or weakness (human patients; human, in vivo): None of the patients experienced any muscular pain or weakness
Total Number of Patients with Presumed Drug-Related Adverse Skeletal Muscle Effects/Total Evaluated (human patients; iv 7-21 days, 4 mg/kg q24h): 0/8
Total Number of Patients with Presumed Drug-Related Adverse Skeletal Muscle Effects/Total Evaluated (human patients; iv 7-21 days, 6 mg/kg q24h, 6 mg/kg): zero of nine and 0/9
Total Number of Patients with Presumed Drug-Related Adverse Skeletal Muscle Effects/Total Evaluated (human patients; iv, 6 mg/kg followed by 3 mg/kg q12h): 0/3
